Test results: patent US11014915B2, “Selective estrogen receptor degrader” (SUN PHARMA ADVANCED RESEARCH COMPANY LIMITED, priority 2019, dated 2021)

Tests used:
[1] = molecular target: T1, ER-α in MCF-7 cells harboring ER wild type (Homo sapiens, UniProt P03372); assay: ER-α degradation (SERD) assay, MCF-7 wild type; assay type: cell-based; conditions: MCF-7 Wt, 1 nM; for % of ER-α remaining at 1 nM: 4 days, western blot, vehicle control as 100%
T1 construct: evaluated in MCF-7 cells harboring ER wild type; endogenous in cells; host or cells: MCF-7
T1 sequence (P03372 1-595): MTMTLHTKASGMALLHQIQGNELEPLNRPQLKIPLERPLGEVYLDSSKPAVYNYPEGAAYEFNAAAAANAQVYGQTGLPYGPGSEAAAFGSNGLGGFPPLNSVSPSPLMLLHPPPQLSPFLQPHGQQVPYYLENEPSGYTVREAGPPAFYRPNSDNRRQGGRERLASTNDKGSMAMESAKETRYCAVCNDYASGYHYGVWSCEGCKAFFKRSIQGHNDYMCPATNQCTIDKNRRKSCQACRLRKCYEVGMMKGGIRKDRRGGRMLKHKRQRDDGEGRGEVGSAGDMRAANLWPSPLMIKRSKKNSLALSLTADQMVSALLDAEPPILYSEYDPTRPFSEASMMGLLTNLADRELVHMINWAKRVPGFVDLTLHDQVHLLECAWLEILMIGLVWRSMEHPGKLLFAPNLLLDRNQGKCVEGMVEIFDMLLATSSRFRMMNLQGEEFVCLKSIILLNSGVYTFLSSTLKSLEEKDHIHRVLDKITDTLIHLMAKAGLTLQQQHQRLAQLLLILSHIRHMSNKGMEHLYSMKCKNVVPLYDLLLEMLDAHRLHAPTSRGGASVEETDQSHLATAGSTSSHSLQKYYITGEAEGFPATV
Procedure: Selective Estrogen Receptor Degradation (SERD) Assay:
The SERD activity for the test compounds was evaluated in MCF-7 cells harboring ER wild type, and MCF-7 cells harboring mutant ER (WT/D538G and WT/Y537S). Briefly, cells were plated in phenol red free RPMI1640 medium supplemented with 5% charcoal stripped fetal bovine serum. The seeding density was 40000 cells/well for MCF-7 WT and MCF-7 D538G and 50000 cells/well MCF-7 Y537S in a 48-well plate. Following overnight incubation, the cells were treated with varying concentrations of test compounds (final concentration: 1000 nM to 0.01 nM, 0.1% DMSO) for 4 days. The cells were lysed using PBS supplemented with 1 mM EDTA, 0.5% Triton X-100, 5 mM NaF, 6 M urea, and 1× Protease inhibitor cocktail. The lysate was analyzed for ER alpha protein using western blot. For the western blot, the cell lysate (12.5-40 μg total protein) was resolved on a 10% SDS PAGE and transferred onto a PVDF membrane. The blots were blocked using 5% skim milk powder in 0.1% PBS-T for 1 hour at room temperature, followed by co-incubation with rabbit anti-human β-actin antibody and rabbit anti-human ERα antibody for 2 hours at room temperature. The blots were subsequently probed with anti-rabbit IgG-HRP conjugate as secondary antibody for 1 hour at room temperature. The blots were developed by using West Pico Super Signal Chemiluminescence substrate and the bands were processed for densitometry analysis using Image Lab software (BioRad version 6.0.0). ERα band intensity was normalized to that housekeeping protein for respective samples. The % ER remaining was calculated by normalizing against the vehicle control (as 100%).

[2] = test system: subcutaneous MCF7-Y537S xenografts; assay: In-vivo efficacy in MCF7-Y537S mice xenografts; design: species or system female athymic nude mice; conditions: for % Tumor growth inhibition compared to vehicle group after 28 days: p.o., once daily
Procedure: In-Vivo Efficacy of Compound of Formula I and Compound of Formula Ia: […]
The efficacy of the compound of Formula I and the compound of Formula Ia were evaluated in female athymic nude mice harboring subcutaneous MCF7-Y537S xenografts. Dose formulations of the compound of Formula I and the compound of Formula Ia were prepared in Tween 80 (0.4% v/v of the total volume of suspension) in 0.5% w/v carboxymethylcellulose (CMC) and administered once daily orally for 28 days. Two perpendicular diameters of tumor were measured with digital Vernier caliper. Tumor volume (V) was calculated using the following equation: V=(a^2×b)/2, where “a” is the width of the tumor (small diameter), and “b” the length (large diameter), both in millimeters. Tumors were monitored twice weekly and compared with a vehicle treated group.

SMILES	SERD activity (in words) [1]	% of ER-α remaining at 1 nM [1] [%]	further results
CC1=C(c2cc(F)cc(F)c2)C(c2ccc(/C=C/CN3CC(CF)C3)cc2)Oc2ccc(O)cc21 (racemic) [Compound 2, 3-(3,5-difluorophenyl)-2-[4-[(E)-3-[3-(fluoromethyl)azetidin-1-yl]prop-1-enyl]phenyl]-4-methyl-2H-chromen-6-ol]	complete loss of the SERD activity	100	
CC1=C(c2cc(F)cc(F)c2)C(c2ccc(/C=C/CN3CCC(CF)CC3)cc2)Oc2cc(O)ccc21 (racemic) [Compound 3, 3-(3,5-difluorophenyl)-2-{4-[(E)-3-(4-fluoromethylpiperidin-1-yl)propenyl]phenyl}-4-methyl-2H-chromen-7-ol]	negligible SERD activity		
CC1=C(c2cc(F)cc(F)c2)C(c2ccc(/C=C/CN3CC[C@@H](CF)C3)cc2)Oc2cc(O)ccc21 (mixture of isomers) [Compound 4, 3-(3,5-difluorophenyl)-2-[4-[(E)-3-[(3R)-3-(fluoromethyl)pyrrolidin-1-yl]prop-1-enyl]phenyl]-4-methyl-2H-chromen-7-ol]	negligible SERD activity		
CC1=C(c2cc(F)cc(F)c2)C(c2ccc(/C=C/CN3CC[C@@H](C)C3)cc2)Oc2cc(O)ccc21 (mixture of isomers) [Compound 5, 3-(3,5-difluorophenyl)-4-methyl-2-[4-[(E)-3-[(3R)-3-methylpyrrolidin-1-yl]prop-1-enyl]phenyl]-2H-chromen-7-ol]	negligible SERD activity		
CC1=C(c2cc(F)cc(F)c2)C(c2ccc(/C=C\CN3CC(CF)C3)cc2)Oc2cc(O)ccc21 (racemic) [Compound 6, 3-(3,5-difluorophenyl)-2-{4-[(Z)-3-(3-fluoromethylazetidin-1-yl)propenyl]phenyl}-4-methyl-2H-chromen-7-ol]	very negligible SERD activity	80.8	
CC1=C(c2cc(F)cc(F)c2)C(c2ccc(C#CCN3CC(CF)C3)cc2)Oc2cc(O)ccc21 (racemic) [Compound 7, 3-(3,5-difluorophenyl)-2-[4-[3-[3-(fluoromethyl)azetidin-1-yl]prop-1-ynyl]phenyl]-4-methyl-2H-chromen-7-ol]	complete loss of SERD activity	100	
CC1=C(c2cc(F)cc(F)c2)C(c2ccc(/C=C/CN3CC(CF)C3)cc2)Oc2cc(O)ccc21 (racemic) [Formula I, 3-(3,5-difluorophenyl)-2-[4-[(E)-3-[3-(fluoromethyl)azetidin-1-yl]prop-1-enyl]phenyl]-4-methyl-2H-chromen-7-ol]			% Tumor growth inhibition compared to vehicle group after 28 days ([2]; 50 mg/kg): 46%; % Tumor growth inhibition compared to vehicle group after 28 days ([2]; 100 mg/kg): 57%; Tumor growth compared to the vehicle group (in words) ([2]; once daily orally for 28 days): significant reduction in the tumor growth
